In patent US20260308152A1, “METHODS OF MAKING 2-AMINO-1-(3-HYDROXY-2,6-DIMETHYLPHENYL)-5,6-DIMETHYL-1H-PYRROLO-[2,3-B]PYRIDINE-3-CARBOXAMIDE, A MYT1 INHIBITOR” (Repare Therapeutics Inc., priority 2022, published 2026):
Converted amounts (≈) assume the structure as drawn. Marks after values point to notes of the source that are not given here.

How the values were obtained:
Assay type in all cases: physicochemical
[1] = Chiral acid salt screen: approximate solubility of starting material in solvents; conditions: ambient temperature, 3 days
Protocol: INT 1f salts (50-60 mg) were weighed into 4 ml vials. Solvent (~0.2-1.0 mL) was added to each vial, and the vials were stirred at ambient temperature for 3 days. Additional solvent was added to vials with thick slurries, and additional salts were added to vials with clear solutions.
In this example, the resolution of INT 1g and Compound 1 via chiral salts is summarized.

[2] = Solubility in anisole at various temperatures
Text: The solubility of racemic INT 1f (recrystallized from anisole) in anisole at various temperatures was investigated (Table 28).
The solubility of (S)-INT 1f/(R)-CSA salt in anisole at various temperatures was also investigated

[3] = Solubility of INT 1b in organic solvents; conditions: most organic solvents (FIG. 1)
Text: FIG. 1 is a graph illustrating the solubility of INT 1b in organic solvents, including heptane, toluene, xylenes, isopropyl acetate (IPAc), ethyl acetate (EtOAc), methyl ethyl ketone (MEK), methyl t-butyl ether (MTBE), dichloromethane (DCM), methanol (MeOH), ethanol (EtOH), isopropanol (iPrOH), acetonitrile (MeCN), water, 5 M H2SO4, and 1 M H2SO4.

[4] = Aromatic solvent screen: solubility of INT 1f/(R)-CSA salt
Text: Following the encouraging result employing anisole as the solvent and switching to (R)-CSA to afford the desired diastereomer, the following common aromatic solvents were screened: 1,3-dimethoxybenzene;
2-, 3-, and 4-methyanisoles; o, m, and p-xylenes; and α,α,α-trifluorotoluene (Table 18). […] In addition to anisole, 4-methylanisole and 1,3-dimethoxybenzene also afforded enantioenriched crystalline solids with enantiomeric ratios (e.r.) of 90:10 and 87:13, respectively. However, the highest e.r. was obtained with anisole (92:8).

| SMILES | Approximate Solubility of Starting Material ([1]; 1,4-Dioxane) | Approximate Solubility of Starting Material ([1]; Acetone:water (9:1)) | Approximate Solubility of Starting Material ([1]; Anisole) | Approximate Solubility of Starting Material ([1]; DCM) | Approximate Solubility of Starting Material ([1]; EtOAc) | Approximate Solubility of Starting Material ([1]; EtOH:Heptane (1:1)) | Approximate Solubility of Starting Material ([1]; EtOH) | Approximate Solubility of Starting Material ([1]; MeCN) | Approximate Solubility of Starting Material ([1]; THF) | Approximate Solubility of Starting Material ([1]; Toluene) | further results |
| --- | --- | --- | --- | --- | --- | --- | --- | --- | --- | --- | --- |
| CC1(C)C2CCC1(CS(=O)(=O)O)C(=O)C2Br.COc1ccc(C)c(-n2c(N)c(C#N)c3cc(C)c(C)nc32)c1C.O | Highly soluble | Highly soluble | Soluble | Highly soluble | Very soluble | Highly soluble | Very soluble | Highly soluble | Highly soluble | Soluble | – |
| COc1ccc(C)c(-n2c(N)c(C#N)c3cc(C)c(C)nc32)c1C.O=P1(O)Oc2ccc3ccccc3c2-c2c(ccc3ccccc23)O1 | Highly soluble | Very soluble | Very soluble | Highly soluble | Soluble | Soluble | Very soluble | Soluble | Highly soluble | Very soluble | – |
| COc1ccc(C)c(-n2c(N)c(C#N)c3cc(C)c(C)nc32)c1C.Cc1ccc(C(=O)O[C@H](C(=O)O)[C@H](OC(=O)c2ccc(C)cc2)C(=O)O)cc1 | Very soluble | Soluble | Soluble | Very soluble | Soluble | Soluble | Soluble | Soluble | Very soluble | Soluble | – |
| COc1ccc(C)c(-n2c(N)c(C#N)c3cc(C)c(C)nc32)c1C (racemic) [INT 1f, 2-Amino-1-(3-methoxy-2,6-dimethylphenyl)-5,6-dimethyl-1H-pyrrolo[2,3-b]-pyridine-3-carbonitrile] | – | – | – | – | – | – | – | – | – | – | Solubility in anisole ([2]; racemic, crystal form recrystallized from anisole, 25° C.): 14.01 mg/mL (≈ 43.7 mM); Solubility in anisole ([2]; racemic, crystal form recrystallized from anisole, 30° C.): 17.72 mg/mL (≈ 55.3 mM); Solubility in anisole ([2]; racemic, crystal form recrystallized from anisole, 40° C.): 21.26 mg/mL (≈ 66.4 mM); Solubility in anisole ([2]; racemic, crystal form recrystallized from anisole, 50° C.): 25.99 mg/mL (≈ 81.1 mM); Solubility in anisole ([2]; racemic, crystal form recrystallized from anisole, 60° C.): 46.5 mg/mL (≈ 145 mM) |
| CC1(C)[C@H]2CC[C@]1(CS(=O)(=O)O)C(=O)C2.COc1ccc(C)c(-n2c(N)c(C#N)c3cc(C)c(C)nc32)c1C [(S)-INT 1f/(R)-CSA, (S)-2-Ammonium-1-(3-methoxy-2,6-dimethylphenyl)-5,6-dimethyl-1H-pyrrolo[2,3-b]-pyridine-3-carbonitrile/(R)-CSA] | – | – | – | – | – | – | – | – | – | – | Solubility in anisole ([2]; salt, 21° C.): 2.39 mg/mL; Solubility in anisole ([2]; salt, 30° C.): 3.78* mg/mL; Solubility in anisole ([2]; salt, 40° C.): 3.37 mg/mL; Solubility in anisole ([2]; salt, 50° C.): 4.20 mg/mL; Solubility in anisole ([2]; salt, 60° C.): 7.29 mg/mL |
| Cc1cc2c(C(N)=O)c(N)n(-c3c(C)ccc(O)c3C)c2nc1C [Compound 1/Acid d] | – | – | Partially soluble | Partially soluble | – | Partially soluble | – | – | – | – | – |
| Cc1cc2c(C(N)=O)c(N)n(-c3c(C)ccc(O)c3C)c2nc1C [Compound 1/Acid f] | – | Soluble | Soluble | Partially soluble | – | Soluble | Partially soluble | Partially soluble | Soluble | – | – |
| Cc1cc2c(C(N)=O)c(N)n(-c3c(C)ccc(O)c3C)c2nc1C [Compound 1/Acid h] | – | Soluble | – | Partially soluble | – | – | Soluble | – | – | – | – |
| Cc1cc(Br)c(=O)[nH]c1C [INT 1b] | – | – | – | – | – | – | – | – | – | – | solubility in most organic solvents [3]: poor solubility |
| COc1ccc(C)c(-n2c(N)c(C#N)c3cc(C)c(C)nc32)c1C.O=C(O[C@H](C(=O)O)[C@H](OC(=O)c1ccccc1)C(=O)O)c1ccccc1 [INT 1f/(+)-2,3-Dibenzoyl-D-tartaric Acid] | Highly soluble | Soluble | Soluble | Highly soluble | Soluble | Soluble | Soluble | Soluble | Highly soluble | Soluble | – |
| CC1(C)C2CC[C@]1(CS(=O)(=O)O)C(=O)C2.COc1ccc(C)c(-n2c(N)c(C#N)c3cc(C)c(C)nc32)c1C [INT 1f/(R)-CSA] | – | – | – | – | – | – | – | – | – | – | solubility ([4]; 1,3-dimethoxybenzene and anisole): high solubility; solubility ([4]; 2-, 3-, 4-methyanisole with heating): good solubility; solubility ([4]; other aromatic solvents (xylenes, α,α,α-trifluorotoluene)): poor solubility |
| CC1(C)C2CC[C@@]1(CS(=O)(=O)O)C(=O)C2.COc1ccc(C)c(-n2c(N)c(C#N)c3cc(C)c(C)nc32)c1C [INT 1f/(S)-CSA] | Soluble | Highly soluble | Very soluble | Very soluble | Soluble | Soluble | Very soluble | Highly soluble | Very soluble | Highly soluble | – |
| COc1ccc(C)c(-n2c(N)c(C#N)c3cc(C)c(C)nc32)c1C.O=P1(O)Oc2c(-c3c(C4CCCCC4)cc(C4CCCCC4)cc3C3CCCCC3)cc3ccccc3c2-c2c(c(-c3c(C4CCCCC4)cc(C4CCCCC4)cc3C3CCCCC3)cc3ccccc23)O1 [INT 1f/(S)-TCYP] | Soluble | Soluble | Very soluble | Highly soluble | Highly soluble | Soluble | Very soluble | Very soluble | Highly soluble | Very soluble | – |
| CC(C)c1cc(C(C)C)c(-c2cc3ccccc3c3c2OP(=O)(O)Oc2c(-c4c(C(C)C)cc(C(C)C)cc4C(C)C)cc4ccccc4c2-3)c(C(C)C)c1.COc1ccc(C)c(-n2c(N)c(C#N)c3cc(C)c(C)nc32)c1C [INT 1f/(S)-TRIP] | Highly soluble | Highly soluble | Very soluble | Highly soluble | Very soluble | Soluble | Soluble | Soluble | Highly soluble | Highly soluble | – |
